Data published in patent publication US20260232594A1, “EXCIPIENT COMPOSITION FOR THE PREPARATION OF AMORPHOUS SOLID DISPERSONS/SOLUTIONS” (UNIVERSITÄTSKLINIKUM HAMBURG-EPPENDORF, priority 2023, published 2026).
Where a name gives a salt, the structure may show the parent alone. Each block holds one compound with its values, some of them ahead of it.

What was measured:
[1] = Extrusion experiments with BZ in place of CD, extrudate analyzed via HPLC; assay type: physicochemical; details: extrusion 125-155° C.
Procedure: For LD and BZ analytics a separate HPLC method was developed for the same equipment. The mobile phase was a 95:5 mixture of aforementioned hydrogen phosphate buffer (pH 2.5) and methanol. LD was detected at 280 nm and BZ at 268 nm. Retention times were 3.41 min (BZ) and 4.41 min (LD). The calibration for LD was the same as in the above-named method and BZ was calibrated in the same range as CD.
Following the dissolution experiments and the subsequently adapted thermoanalyses to further investigate the thermolability of CD, extrusion experiments with BZ were conducted. For these experiments, the CD (P25/29-M) was substituted with BZ. The formulation was extruded between 125-155° C. and the extrudate analyzed via HPLC.

[2] = Dissolution of printed tablets, Ph. Eur. 2.9.3, 0.1 M HCl, paddle 100 rpm, HPLC; assay type: physicochemical
Procedure: Dissolution experiments were carried out according to Ph. Eur. 10.6; 2.9.3 (EDQM, Ph. Eur.), with a Premiere 5100 Dissolution System (Distek Inc., North Brunswick Township, NJ, USA). […] The paddle speed was set to 100 rpm. Samples were taken after 5, 10, 15, 20, 30, 45, 60 and 90 min. A sinker was used for analyzes. For all small tablets and the large Oblongs a Distek “Japanese Basket” was used, whereas a custom 3D printed polylactic acid (PLA) sinker (not shown) was used for the large Cylinders and the large Donuts. If applicable, the dissolution profiles were compared using the f2 comparison (Moore and Flanner 1996).
The API content of the powder blend and the dissolution samples were analyzed and evaluated with a Nexera XR HPLC system and LabSolutions software version 6.83 (both Shimadzu Corp., Nakagyo-ku, Kyoto, Japan). The Nexera XR HPLC system consists of two degassing units (DGU-20A5R) and two HPLC-pumps (LC-20ADXR) as well as an autosampler (SIL-20ACXR) a column oven (FCV-34AH) and a communication bus module (CBM-20A). Samples were dissolved and diluted in 0.1 M HCl. Turbid samples were filtered through a 0.22 μm PTFE Filter. Prior to each analytical sequence, the column was equilibrated for 30 min and the autosampler purged for 5 min. HPLC samples were measured in duplicate with an injection volume of 20 μL. […]

[3] = Stability analysis: storage in constant climate chambers, API content by HPLC; assay type: physicochemical; details: in P25/29-M small Donuts
Procedure: Small Donuts of P25/29-M were packed in FDS/Proud packaging material Unit Dose Bags (UDB) using a FDS II Proud 336 device (Baxter International Inc., Deerfield, Il, USA) or brown glass stored in constant climate chambers (KBF P 240 and KBF S 240; Binder GmbH; Tuttlingen, Germany). […] Samples packed in UDB were stored for 7 days or 28 days in each of the previously mentioned conditions. Samples in brown glass were stored for 28 days in the 25° C./60% RH condition. After storage, the API contents of the samples were analyzed via HPLC as described in 2.2.6. Each sampling time comprised three samples.

[4] = Particle size analysis by laser light diffraction; assay type: physicochemical; details: Fraunhofer method
Procedure: Laser diffraction measurements were performed with a LS 13 320 laser diffraction particle size analyzer equipped with a Tornado DPS module (Beckman Coulter Inc, Brea, CA, USA). Each API, excipient and the blend of batch P25/29-M were measured five times. Particle sizes were calculated using the Fraunhofer method.

[5] = assay type: physicochemical
Procedure: DSC analyzes were carried out with a DSC 1 device (Mettler-Toledo, LLC, Columbus, OH, USA) operated with STARe Software V16.10. Each single component of the formulation as well as the powder blend and the extruded filament (both P25/29-M) were analyzed. Three different methods were utilized. Nitrogen was used as a purging gas at a flow rate of 50 mL/min. Every sample was heated to 250° C. (10° C./min) and kept at this temperature for 5 min. CD, LD, mannitol and the powder blend were also heated (10° C./min) to and kept at 185° C. (10 min), then cooled to 25° C. (20° C./min) and kept at this temperature for 5 min and reheated to 185° C. (10° C./min) and kept at this temperature for 10 min. Ultimately, CD and the powder blend were also heated to 182° C. (10° C./min) and kept at this temperature for 30 min.

[6] = Thermogravimetric analysis (TGA), thermal stability; assay type: physicochemical; details: for temperature at which mass loss / decomposition starts (thermogram): 40 to 300° C.
Procedure: TGA analyzes were carried out with a Discovery TGA (TA Instruments, Waters, LLC, U.S.A.) and data was collected and analyzed with TA Instruments Trios software and percent mass loss or onset temperature were calculated. Two different methods were utilized. Both APIs were subjected to a temperature ramp of 10° C./min starting at 40° C. and concluding at 300° C. in open aluminum pans. CD was additionally subjected to an isothermal stress test at 180° C. for 30 min.

[7] = 3D printing of tablets by direct powder extrusion (DPE): printability and API tolerance; details: printing temperature 180° C.
Source text: The previously blended powders were 3D printed using a M3DIMAKER™ equipped with a DPE printhead coupled with a 0.4 mm nozzle (FabRx Ltd., London, United Kingdom). Computer-aided design (CAD) models of tablets were designed using Autodesk Tinkercad (Autodesk Inc., Mill Valley, CA, U.S.A.) and processed with Repetier-Host software (Hot-World GmbH & Co. KG, Willich, Germany). To enhance powder flow, the M3DIMAKER™ was modified with a stirring element 4 (see FIG. 1).
Tablets were printed using the following parameters: printing temperature: 180° C.; first layer height: 0.6 mm, layer height: 0.15-0.30 mm (adaptive slicing), infill: 60-100%, travel speed 70 mm/s, first layer speed 5 mm/s, perimeter speed 7.5-15 mm/s, infill speed: 15-20 mm/s with zero (Oblongs) or one (Cylinders and Donuts) top layer, two bottom layers and two shells.

substance lost during extrusion [1]: More than 70%
SMILES: NC(CO)C(=O)NNCc1ccc(O)c(O)c1O (stereo not shown) [BZ, Benserazide-HCl]

substance lost during extrusion ([2]; CD, much higher extrusion temperatures (printing 180° C.)): 30-40% | CD recovered from the completely dissolved tablets ([2]; after the printing process): 60-70% | storage stability (in words) ([3]; brown glass, and 25/60, 7 in UDB): moderate stability | particle size d50 [4]: 15.3 μm | time of exposition until decomposition begins (isothermal DSC) ([5]; 182° C. isothermal): 7 to 8 min | loss in mass over the first 10 min (isothermal TGA) ([6]; 180° C. isothermal): more than 20% | mass loss in the thermogram (release of hydrate water) ([6]; between ca. 90-140° C., ramp 10° C./min): about 8% | temperature at which mass loss / decomposition starts (thermogram) ([6]; ramp 10° C./min): about 195 °C
SMILES: C[C@@](Cc1ccc(O)c(O)c1)(NN)C(=O)O [CD, Carbidopa]
tolerance of the printing process (in words) [7]: degraded partially during the printing process

particle size d50 [4]: 51.8 μm | temperature up to which no degradation was found (DSC and TGA) [5]: > 250 °C | temperature at which mass loss / decomposition starts (thermogram) ([6]; ramp 10° C./min): about 275 °C
SMILES: N[C@@H](Cc1ccc(O)c(O)c1)C(=O)O [LD, Levodopa]
storage time tolerated ([3]; both conditions (25/60, 40/75) and packagings): at least 28 days | tolerance of the printing process (in words) [7]: able to tolerate the printing temperature

particle size d50 [4]: 345 μm
SMILES: OC[C@@H](O)[C@@H](O)[C@H](O)[C@H](O)CO [mannitol, Mannitol]
